{"source": "patent EP3530280B1", "about": "“VETERINARY COMPOSITION FOR MANUFACTURING A SEMINAL ADDITIVE USEFUL FOR ARTIFICIAL INSEMINATION IN ANIMALS” (Universidad De León, priority 2016, dated 2020)", "system": "swine", "assay": "Field studies of semen additive in swine artificial insemination (fecundity, birth fertility, prolificacy)", "format": "in vivo", "conditions": "Experimental Groups, amount per dose as given in the Composition column", "procedure": "In order to examine the effect of the prepared pharmaceutical composition in Example 1 above, for use thereof in swine artificial insemination, field studies were carried out about the effects on fecundity, birth fertility and prolificacy (mean of the total piglets being born (either dead or alive) per delivery). Tables 1 and 2 show the results of the studies being carried out, observing how there are differences being statistically significant in all the experimental groups with respect to control groups.\nThe statistical characters of fecundity (%fecundity), prolificacy (N.T.), number of alive births (N.V.) and mortality (% of N.M. against N.T.), were tested on factorial ANOVA, LSD Fisher and SAS package (Statistical Analysis System). Table 1. Effects on fecundity and birth fertility", "key": {"[1]": {"conditions": "additive applied to seminal doses for swine artificial insemination"}}}
{"substance": "Oxytocin", "values": [{"measurement": "prolificacy (mean of the total piglets being born (either dead or alive) per delivery)", "setting": "Mean ± e.s. (n)", "result": "14.30 ± 0.29 (154)"}, {"measurement": "Birth Fertility (%)", "setting": "[1]", "result": 88.89, "unit": "%"}, {"measurement": "Fecundity (%)", "setting": "[1]", "result": 90.26, "unit": "%"}]}
